The numbers were not newly measured in patent publication US20140113883A1, “Therapeutic micro nutrient composition for lipolysis and sclerosis” (priority 2008, published 2014), which cites them from elsewhere.

The test system of the data set is red blood cells.

For the substance Lysolecithin, the hemolytic properties entry was “strong hemolytic properties”.
